The test system of one test is Candida albicans. In words: Disk diffusion susceptibility testing. Format: cell-based. Particulars: ATCC 90028. On the procedure: (§1) Antimicrobial activity was assayed by disk susceptibility tests according to the NCCLS (National Committee for Clinical Laboratory Standards, Performance Standards for Antimicrobial Disk Susceptibility Tests-Sixth Edition: Approved standard M2-A6, NCCLS, Wayne, Pa., 1997). Inocula were adjusted to a density of 0.10 at 625 nm in SDA broth, and spread on SDA plates. Excess moisture was allowed to absorb for 10 min before applying dried disks containing two-fold dilutions of the drugs. Test plates were incubated at 35° C. (25° C. for C. albidus and C. laurentii), and zones of inhibition recorded after 48 h. The minimum inhibitory concentration (MIC) was defined as the lowest concentration of drug resulting in a clear zone of growth inhibition. Disk susceptibility testing of Staphylococcus aureus, Enterococcus faecalis, Escherichia coli and Neisseria gonorrhoeae was also performed.
On the technique in general: Agar diffusion results depend on both activity and mobility in agar.

Test [1] deals with Cryptococcus neoformans. Briefly: Disk diffusion susceptibility testing. The test is classed as cell-based. Particulars: ATCC 90112. On the procedure: as §1
For another test, the system named is Cryptococcus albidus. In words: Disk diffusion susceptibility testing. The test is classed as cell-based. Particulars: ATCC 66030. As for the experimental part:
as §1

In another test the test system is Candida glabrata. Briefly: Disk diffusion susceptibility testing. The test is classed as cell-based. Particulars: ATCC 90030. On the procedure: as §1
The test system of the next test is Cryptococcus laurentii. In words: Disk diffusion susceptibility testing. Format: cell-based. The following applies: ATCC 66036. On the procedure: as §1
For test [2], the system named is Cryptococcus neoformans. Briefly: Broth macrodilution assay (MIC, MFC), ATCC strains. Format: cell-based. Particulars: C. neoformans #14116. As for the experimental part: (§2) Dolastatin 10 and modifications were screened against yeasts by the broth macrodilution assay according to the NCCLS (National Committee for Clinical Laboratory Standards, Reference Method for Broth Dilution Antifungal Susceptibility Testing of Yeasts: Approved Standard M27-A, NCCLS, Wayne, Pa., 1997). Yeasts were suspended and diluted as recommended to yield final inocula ranging from 0.5-2.5×10^3 colony forming units (CFU)/ml. Tests were performed in sterile 12×75 mm plastic tubes containing two-fold dilutions of the peptides in 0.165 M morpholinepropanesulfonic acid (MOPS)-buffered RPMI 1640 medium (pH 7.0). One tube was left drug-free for a turbidity control. Tubes were incubated without agitation at 35° C. (25° C. for C. albidus and C. laurentii). MICs were determined after 72 h for Cryptococcus, and after
(§3) 48 h for other yeast genera. The MIC was defined as the lowest concentration of compound that inhibited all visible growth of the test organism.
(§4) Minimum fungicidal concentrations (MFCs) were determined by subculturing 0.1 ml from each tube with no visible growth in the MIC broth macrodilution series onto drug-free SDA plates. The plates were incubated at 35° C. for 48 h for Cryptococcus (25° C. for C. alhidus and C. laurentii), and 35° C. for 24 h for all other yeast and filamentous fungi.

The test system of test [3] is Cryptococcus neoformans #90112. Briefly: Effect of host factors (pH, human serum) on broth macrodilution MICs and MFCs. Format: cell-based. The following applies: acidified RPMI. On the procedure: as §2, §3, §4
Broth macrodilution assays were performed with RPMI prepared at pH 5, pH 6 and pH 7, and in RPMI, with and without 50% normal human serum (Lampire Biological Labs). Cryptococcus neoformans #90112 was used in each case.

The test system of another test is C. neoformans (#90112). Briefly: Killing kinetics. The following applies: 1x, 4x, 8x MIC, FIG. 2. The test is classed as cell-based, Cryptococcus neoformans. On the procedure:
Overnight cultures of C. neoformans (#90112) in Ph 7.0 MOPS-buffered RPMI 1640 medium were inoculated into the same medium containing multiples of the broth macrodilution MIC of the antifungal peptides, or an equivalent volume of DMSO. Cultures were shaken at 35° C., and aliquots aseptically removed at various times for dilution plating.

Test [4] deals with clinical isolates of C. neoformans. Briefly: Broth macrodilution (MIC, MFC), 19 clinical isolates. The test is classed as cell-based, Cryptococcus neoformans.
Source text: Clinical isolates of C. neoformans were obtained from patient cerebrospinal fluid, blood, bone marrow, sputum, bronchial lavage and wound infections at the University of Virginia Medical Center, Strains clinically resistant to fluconazole (See: Jessup, C. J. et al, 1997; Poster #F-88, 37th ICAAC, Toronto, Canada) were provided by the Center for Medical Mycology, Case Western Reserve University. Yeast strains (except for C. albidus and C. laurentii) were maintained by single colony transfer on Sabouraud Dextrose Agar (SDA), pH 5.6 at 35° C. Cryptococcus albidus, C. laurentii and C. uniguttulatus (#66033) were maintained on SDA, pH 6.6 at 25° C., C. uniguttulatus (#34143) and C. ater on Yeast Morphology (YM) agar at 25° C. and filamentous fungi were maintained on Potato Dextrose Agar (PDA) slants at 35° C.
as §2, §3, §4

In brackets after ≈: the same amount, converted by molar mass. Some results are limits rather than exact numbers.

Consider `CCC(C)C(C(CC(=O)N1CCC[C@H]1C(OC)C(C)C(=O)NC(Cc1ccccc1)C(=O)Nc1nnc(-c2ccccc2)s1)OC)N(C)C(=O)[C@@H](NC(=O)[C@H](C(C)C)N(C)C)C(C)C` (stereo partly drawn) [1b], for which the MIC in the test on Candida albicans is above 100 μg/disk; in the test on Cryptococcus neoformans [1] it was 3.12-6.25 μg/disk; in the test on Cryptococcus albidus, above 100 μg/disk; in the test with Candida glabrata it was above 100 μg/disk; with Cryptococcus laurentii it was above 100 μg/disk. Also, the “MFC relative to MIC” value in the test on Cryptococcus neoformans [2] was “sixteenfold greater than MICs”.

`CCC(C)C(C(CC(=O)N1CCC[C@H]1C(OC)C(C)C(=O)NC(Cc1ccccc1)C(=O)OC)OC)N(C)C(=O)[C@@H](NC(=O)[C@H](C(C)C)N(C)C)C(C)C` (stereo partly drawn) [1d]: the “effect of lowered pH on anticryptococcal activity” value in [3] is on record as “least affected by lowered pH”. The MIC against Candida albicans was above 100 μg/disk. Moreover, in the test with Cryptococcus neoformans [1], the MIC is 3.12-6.25 μg/disk. The compound also registered an MIC in the test on Cryptococcus albidus above 100 μg/disk. Also, the MIC with Cryptococcus laurentii is above 100 μg/disk. In the test with C. neoformans (#90112), the “fungicidal action, reductions in CFUs” value is “most dramatic reductions in CFUs”. Further, in [4] (19 clinical isolates), the MFC50 was 0.39 µg/mL (≈ 0.513 µM), the MFC90 stood at 0.78 µg/mL (≈ 1.03 µM), the “MIC50 (MIC at which 50% of the isolates were inhibited)” value was determined as 0.195 µg/mL and the “MIC90 (MIC at which 90% of the isolates were inhibited)” value turned out to be 0.39 µg/mL. In [4] (19 clinical isolates), the “clinical isolate MFCs, range” value lay within 0.0975 to 6.24 µg/mL; the “share of clinical isolates with MFC/MIC ratio equal to 4” value amounted to 26%; the “share of clinical isolates with MFC/MIC ratio less than or equal to 2” value was “more than 68%”. Also, the resistant clinical isolates result in test [4] (19 clinical isolates (not fluconazole-resistant strains)) is reported as “No resistant clinical isolates were found”. Also, the “recovery: MFCs after the recommended incubation period compared with one week later” value in [4] (clinical isolates) is given as “no evidence of recovery”.

Consider `CCC(C)C(C(CC(=O)N1CCC[C@H]1C(OC)C(C)C(=O)NC(CCSC)C(=O)Nc1cnc2ccccc2c1)OC)N(C)C(=O)[C@@H](NC(=O)[C@H](C(C)C)N(C)C)C(C)C` (stereo partly drawn) [1e], for which the MIC against Candida albicans is listed as above 100 μg/disk; in the test on Cryptococcus neoformans [1], 25-50 μg/disk.

With `CCC(C)C(C(CC(=O)N1CCC[C@H]1C(OC)C(C)C(=O)NC(Cc1ccccc1)C(=O)Nc1nc(SC)ns1)OC)N(C)C(=O)[C@@H](NC(=O)[C@H](C(C)C)N(C)C)C(C)C` (stereo partly drawn) [1c], the MIC in the test with Candida albicans was above 100 μg/disk; against Cryptococcus neoformans [1], 1.56-3.12 μg/disk; against Candida glabrata, above 100 μg/disk. Also, the “MFC relative to MIC” value in the test with Cryptococcus neoformans [2] is reported as “sixteenfold greater than MICs”.

The values are drawn from patent US6620911B1, “Anti-cryptococcal peptides” (Arizona Board of Regents, acting for and on behalf of …, priority 1998, dated 2003).
